Assay results from patent US20030170740A1, “Characterized E2IG3 protein for diagnosis and treatment of proliferative diseases” (priority 2001, published 2003).

Tested on: MCF-7 cells
Assay: High dose E2 treatment of MCF-7 cells (apoptosis)
Format: cell-based, human
Conditions: high dose E2 treatment of MCF-7 cells

## C[C@]12CC[C@@H]3c4ccc(O)cc4CC[C@H]3[C@@H]1CC[C@@H]2O [E2, 17B-estridiol]
  Effect of high dose E2 on cell fate (apoptosis): committed to apoptotic pathways
